Results: patent EP0569598A1, “BENZOXAZINONE DERIVATIVE” (JAPAN TOBACCO INC., priority 1991, dated 1993)

Legend:
Format in all cases: biochemical
[1] = molecular target: T1, human sputum elastase (HSE) (Homo sapiens, UniProt P08246); experiment: HSE inhibitory activity (synthetic substrate, pNA release); settings: pH 7.0; HSE 10 nM, substrate 0.25 mM; read-out: IC₅₀ value HSE
T1 construct: human sputum elastase (HSE); purchased Sigma Inc
T1 sequence (P08246 30-267): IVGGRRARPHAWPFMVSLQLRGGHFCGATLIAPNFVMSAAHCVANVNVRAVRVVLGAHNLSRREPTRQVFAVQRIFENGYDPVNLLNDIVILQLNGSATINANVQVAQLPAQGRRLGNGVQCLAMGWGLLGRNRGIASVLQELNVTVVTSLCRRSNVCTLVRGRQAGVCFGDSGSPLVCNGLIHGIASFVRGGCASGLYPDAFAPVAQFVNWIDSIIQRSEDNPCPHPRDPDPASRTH
Description: (§1) Activities of the Benzoxazine derivatives of the present invention against human leukocyte elastase (HLE), human sputum elastase (HSE), human cathepsin G (HCG), bovine pancreatic α-chmotrypsin (CYT) and bovine pancreatic trypsin (TRY) were measured by the following method.
(§2) A test compound was dissolved in DMSO (for fluorometry) and prepared various concentration of the solution. To each concentration was added 2-fold volume of 0.2M Tris-HCl (pH8.6), thereby obtaining a test solution. Synthetic substrate (Funakoshi, L-1335) was dissolved in DMSO and 2-volume of 0.2M Tris-HCl (pH8.6) was added thereto, thereby obtaining a substrate solution. The reaction was performed using a microplate having 96 wells (Nunk). Six-time reactions were repeated for each concentration. One handred and forty µl of an enzyme solution containing 0.2M Tris-HCl (pH8.6), 30 µl of a test solution and 30 µl of a substrate solution per well of the microplate were respectively pre-incubated at 37°C for 10 minutes. After completion of the incubation, the enzyme solution was mixed with the test sample and incubated for 10 minutes and then the substrate solution was added to perform an enzyme reaction. The absorbance of released P-nitroanilide (PNA) was measured at the wave length of 405 nm by means of a microplate reader (MTP-100; CORONA), thereby determining the substrate decomposition. […]

[2] = molecular target: T2, bovine pancreatic trypsin (TRY) (Bos taurus, UniProt P00760); experiment: TRY inhibitory activity (synthetic substrate, pNA release); settings: pH 7.5; TRY 25 nM, substrate Z-Arg-pNA 1.0 mM; read-out: IC₅₀ value TRY
T2 construct: bovine pancreatic trypsin (TRY); purchased Sigma Inc
T2 sequence (P00760 24-246): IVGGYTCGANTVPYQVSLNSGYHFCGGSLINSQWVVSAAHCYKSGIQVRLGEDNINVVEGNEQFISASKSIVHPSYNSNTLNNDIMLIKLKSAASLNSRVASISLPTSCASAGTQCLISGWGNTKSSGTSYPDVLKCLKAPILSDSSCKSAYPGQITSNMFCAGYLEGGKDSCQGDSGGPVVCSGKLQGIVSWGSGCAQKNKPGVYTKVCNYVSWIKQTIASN
Description: as §1, §2

[3] = molecular target: T3, human leukocyte elastase (HLE) (Homo sapiens, UniProt P08246); experiment: HLE inhibitory activity (synthetic substrate, pNA release, absorbance 405 nm); settings: pH 8.6; HLE 5.63 nM, substrate 0.2625 mM; 37°C; read-out: IC₅₀ value HLE
T3 construct: the mixed solution was subjected to density gradient centrifugation, thereby obtaining neutrophiles; from tissue; host or cells: neutrophils from human vein blood (buffy coat)
T3 sequence (P08246 30-247 limits assumed): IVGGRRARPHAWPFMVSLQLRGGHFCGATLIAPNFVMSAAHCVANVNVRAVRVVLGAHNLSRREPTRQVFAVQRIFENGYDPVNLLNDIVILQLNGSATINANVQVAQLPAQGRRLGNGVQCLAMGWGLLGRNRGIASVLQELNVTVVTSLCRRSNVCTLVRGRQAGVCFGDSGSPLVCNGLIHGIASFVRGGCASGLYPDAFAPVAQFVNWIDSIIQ
Description: as §1
A buffy coat was obtained by subjecting human vein blood to centrifugation. To the buffy coat was added distilled water to make a hypotonic solution, thereby bursting erythrocytes. To the residual blood cell component was added a 33.4% of Conrey 400 solution/9% Ficoll solution (the ratio of the former solution to the latter solution is 10:24), and the mixed solution was subjected to density gradient centrifugation, thereby obtaining neutrophiles. The neutrophile fraction was washed with Hanks' buffer for three times and then cells were recovered and cryopreserved at -80°C until use. The cryopreserved-cells were thawed with warm water at 37°C and suspended in a 9-fold volume of lysis buffer containing 0.1M Tris-HCl (pH7.5), 1M MgCl₂ and 0.1% Brij 35. The suspended cells are destroyed by means of polotoron with ice-cooling. The cell suspension was subjected to centrifugation at 100,000 x g for 1 hour. After removing precipitates, 2-fold volume of a Tris-HCl buffer containing 5 mM Tris-HCl(pH 7.5), 1M NaCl and 1.1% Brij 35 was added to the supernatant, thereby obtaining a crude solution of an enzyme extract. The crude solution was subjected to aprotinine affinity column and extracted with an elution buffer containing […] of glycine-HCl (pH 3.3), 1M NaCl and 0.1% Brij 35, thereby obtaining an active fraction. The obtained active fraction was further subjected to MONO S-ion-exchange chromatography and eluted with 2M NaCl linear gradient. The obtained fraction was dialyzed against 25 mM Tris-HCl (pH8.6) and lyophilized, thereby obtained an enzyme sample.
A test compound was dissolved in DMSO (for fluorometry) and prepared various concentration of the solution. To each concentration was added 2-fold volume of 0.2M Tris-HCl (pH8.6), thereby obtaining a test solution. Synthetic substrate (Funakoshi, L-1335) was dissolved in DMSO and 2-volume of 0.2M Tris-HCl (pH8.6) was added thereto, thereby obtaining a substrate solution. The reaction was performed using a microplate having 96 wells (Nunk). Six-time reactions were repeated for each concentration. One handred and forty µl of an enzyme solution containing 0.2M Tris-HCl (pH8.6), 30 µl of a test solution and 30 µl of a substrate solution per well of the microplate were respectively pre-incubated at 37°C for 10 minutes. After completion of the incubation, the enzyme solution was mixed with the test sample and incubated for 10 minutes and then the substrate solution was added to perform an enzyme reaction. The absorbance of released P-nitroanilide (PNA) was measured at the wave length of 405 nm by means of a microplate reader (MTP-100; CORONA), thereby determining the substrate decomposition. The rate of the substrate decomposition was shown as an average value of 6 repeated reactions. The inhibitory concentration of a test compound relative to the amount of the substrate decomposition in the reaction mixture without a test compound was regarded as an IC₅₀ value. The final concentration of HLE and a synthesized substrate in the reaction mixture were 5.63 nM and 0.2625 mM, respectively.

IC50 [1]: 280 nM
IC50 [2]: > 12500 nM
IC50 [3]: 70 nM
Structure (SMILES): Cc1cccc2nc([C@@H](NC(=O)OCC(c3ccccc3)c3ccccc3)C(C)C)oc(=O)c12 [Compound 1, 2-[1(S)-[(2,2-diphenylethoxy-carbonyl)amino]-2-methylpropyl]-5-methyl-4H-3,1-benzoxazin-4-one]
